# Assay results reported in ChEMBL document CHEMBL5331097, “Synthesis and evaluation of a new class of MIF-inhibitors in activated macrophage cells and in experimental septic shock in mice” (Eur J Med Chem, 2023).
# The source made the active and inactive calls. No cut-off for these calls is given here.
# Experiments:
# [1] = molecular target: T1, Macrophage migration inhibitory factor (Homo sapiens, UniProt P14174); assay: Inhibition of human recombinant MIF enolase activity using phenylpyruvate as substrate
# T1 sequence (P14174 whole entry): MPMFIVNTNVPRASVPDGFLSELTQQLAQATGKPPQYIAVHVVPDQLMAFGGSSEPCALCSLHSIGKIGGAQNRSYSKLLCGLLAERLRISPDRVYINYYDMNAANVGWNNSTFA
# [2] = molecular target: T1, Macrophage migration inhibitory factor; assay: Inhibition of human recombinant MIF ketonase activity using phenylpyruvate as substrate
# RAW264.7 [3] = assay: Reduction of macrophage activation in LPS induced mouse RAW264.7 cells assessed as reduction in TNF-alpha production at 50 uM pretreated for 30 mins followed by LPS addition after 24 hrs by ELISA method; format: functional, cell-based; details: time 24.5 hrs
# RAW264.7 [4] = assay: Reduction of macrophage activation in LPS induced mouse RAW264.7 cells assessed as reduction in IL-6 production at 50 uM pretreated for 30 mins followed by LPS addition after 24 hrs by ELISA method; format: functional, cell-based; details: time 24.5 hrs
# RAW264.7 [5] = assay: Reduction of macrophage activation in LPS induced mouse RAW264.7 cells assessed as NF-kappaB activation at 50 uM pretreated for 30 mins followed by LPS addition measured after 24 hrs; format: functional, cell-based; details: time 24.5 hrs
# RAW264.7 [6] = assay: Antiproliferative activity against LPS induced mouse RAW264.7 cells assessed as decrease in number of living cells at 50 uM pretreated for 30 mins followed by LPS addition measured after 24 hrs relative to control; format: functional; set-up: scale not given: the % may be the effect or the level left; details: time 24.5 hrs
# RAW264.7 [7] = assay: Antiproliferative activity against LPS induced mouse RAW264.7 cells at 50 uM measured after 24 hrs; format: functional, cell-based
# RAW264.7 [8] = assay: Reduction of macrophage activation in LPS induced mouse RAW264.7 cells assessed as NF-kappaB activation at 50 uM pretreated for 30 mins followed by LPS addition measured after 24 hrs relative to control; format: functional; set-up: scale not given: the % may be the effect or the level left; details: time 24.5 hrs
# Mus musculus = assay: Protection against C57BL/6 mouse assessed as increase in LPS-induced colonic temperature at 1.8 mg/kg, ip for 30 mins followed by LPS addition measured from 130 to 360 mins; format: functional, organism-based; details: time 160-390 min
# RAW264.7 [9] = assay: Antiinflammatory activity in LPS induced mouse RAW264.7 cells assessed as reduction of nitrite production at 50 uM pretreated for 30 mins followed by LPS addition measured after 24 hrs measured by Griess reagent method; format: functional, cell-based; details: time 24.5 hrs
# RAW264.7 [10] = assay: Antiinflammatory activity in LPS induced mouse RAW264.7 cells assessed as reduction of ROS production at 50 uM pretreated for 30 mins followed by LPS addition measured after 24 hrs measured by fluorescence based assay; format: functional, cell-based; details: time 24.5 hrs
IC50 ([1]; read-out: IC50),IC50 ([2]; read-out: IC50),SMILES,further results
28.9 µM,67.3 µM,COc1ccc2c(c1)C/C(=C\c1cccc(O)c1O)C2=O,–
23.4 µM,42.7 µM,O=C1/C(=C/c2ccccc2)COc2cc(O)ccc21,–
14.5 µM,96.5 µM,COc1cc(/C=C2\Cc3ccccc3C2=O)ccc1O,–
210 µM,60.7 µM,O=C1/C(=C/c2c[nH]c3ccccc23)CCc2cc(O)ccc21,–
35.9 µM,25.4 µM,O=C1/C(=C/c2cccc(O)c2)CCc2ccccc21,–
827 µM,99.3 µM,O=C1/C(=C/c2ccc(O)cc2)CSc2ccccc21,–
17 µM,9.88 µM,COc1ccc2c(c1)C(=O)/C(=C/c1cccc(O)c1O)C2,–
4.43 µM,2.12 µM,CC(C)c1ccc(/C=C2\CCc3cc(O)ccc3C2=O)cc1,–
24.9 µM,65 µM,O=C1/C(=C/c2cc(O)cc(O)c2)CCc2ccccc21,–
1.32 µM,4.95 µM,COc1ccc(/C=C2\Cc3ccccc3C2=O)cc1O,Activity (RAW264.7 [3]): Active; Activity (RAW264.7 [4]): Active; Activity (RAW264.7 [5]): inactive; Activity (RAW264.7 [6]): 80.46%
38.3 µM,19.8 µM,COc1ccc2c(c1)C(=O)/C(=C/c1ccc(O)c(OC)c1)C2,–
484 µM,64.7 µM,COc1cc(/C=C2\CCc3cc(O)ccc3C2=O)cc(OC)c1OC,–
–,12.9 µM,O=C1/C(=C/c2ccc(O)c(O)c2)Cc2ccccc21,IC50 [1]: Not Active
30.9 µM,30.4 µM,COc1cc(/C=C2\CCc3cc(O)ccc3C2=O)ccc1O,–
41.3 µM,8.75 µM,CCN(CC)CCOc1ccc(/C=C2\CCc3cc(O)ccc3C2=O)cc1,–
44 µM,67.2 µM,COc1ccc(/C=C2\CCc3cc(O)ccc3C2=O)cc1,–
2620 µM,–,COc1ccc2c(c1)CC/C(=C\c1ccc(C)cc1)C2=O,IC50 [2]: Not Active
1160 µM,29.8 µM,O=C1/C(=C/c2ccccc2O)CCc2ccccc21,–
33.3 µM,72.6 µM,O=C1/C(=C/c2cccnc2)CCc2cc(O)ccc21,–
71.4 µM,51.5 µM,Cc1ccc(/C=C2\CCc3cc(O)ccc3C2=O)cc1,–
72.7 µM,127 µM,O=C1/C(=C/c2ccc(O)cc2)COc2ccccc21,–
38.2 µM,31.4 µM,O=C1/C(=C/c2ccco2)CCc2cc(O)ccc21,–
–,51.1 µM,COc1cc(/C=C2\CCc3ccccc3C2=O)ccc1O,–
1.22 µM,0.88 µM,O=C1/C(=C/c2ccc(O)cc2)Cc2ccccc21,Activity (RAW264.7 [3]): Active; Activity (RAW264.7 [4]): Active; Activity (RAW264.7 [5]): inactive; Activity (RAW264.7 [7]): inactive
6.46 µM,51 µM,O=C1/C(=C/c2cccs2)CCc2cc(O)ccc21,–

IC50 ([1]; read-out: IC50),IC50 ([2]; read-out: IC50),SMILES,further results
81.3 µM,162 µM,O=C1/C(=C/c2ccc[nH]2)CCc2cc(O)ccc21,–
104 µM,–,COc1cc(/C=C2\CCc3cc(OC)c(OC)cc3C2=O)ccc1O,IC50 [2]: Not Active
111 µM,19.6 µM,O=C1/C(=C/c2cccc(O)c2)CCc2cc(O)ccc21,–
2.98 µM,2.99 µM,COc1ccc2c(c1)CC/C(=C\c1ccc(O)cc1)C2=O,–
39.7 µM,25.7 µM,CN(C)c1ccc(/C=C2\CCc3cc(O)ccc3C2=O)cc1,–
126 µM,48.9 µM,COc1ccc2c(c1)CC/C(=C\c1ccccc1)C2=O,–
–,68 µM,N#Cc1ccc(/C=C2\CCc3cc(O)ccc3C2=O)cc1,IC50 [1]: Not Active
65.8 µM,22 µM,O=C1/C(=C/c2ccc3c(c2)OCO3)CCc2cc(O)ccc21,–
65.9 µM,32.1 µM,O=C1/C(=C/c2ccccn2)CCc2cc(O)ccc21,–
102 µM,33.4 µM,O=C1/C(=C/c2ccc(O)cc2)CS(=O)(=O)c2ccccc21,–
73.8 µM,204 µM,COc1ccc2c(c1)C(=O)/C(=C/c1ccc(OC)c(O)c1)C2,–
1.94 µM,49.2 µM,O=C1/C(=C/c2ccc(O)cc2)CCc2ccccc21,Activity (RAW264.7 [8]): ~35%; Activity (RAW264.7 [3]): Active; Activity (RAW264.7 [4]): Active; Activity (Mus musculus): Active; Activity (RAW264.7 [7]): inactive
81.4 µM,63.4 µM,COc1ccc2c(c1)CC/C(=C\c1cccnc1)C2=O,–
–,35.2 µM,O=C1/C(=C/C=C/c2ccccc2)CCc2cc(O)ccc21,IC50 [1]: Not Active
1.99 µM,2.04 µM,O=C1/C(=C/c2ccccc2)CCc2cc(O)ccc21,Activity (RAW264.7 [8]): ~35%; Activity (RAW264.7 [9]): Active; Activity (RAW264.7 [3]): Active; Activity (RAW264.7 [4]): Active; Activity (RAW264.7 [10]): inactive; Activity (RAW264.7 [7]): inactive
13.8 µM,67.2 µM,O=C1/C(=C/c2ccc(O)cc2)CCCc2ccccc21,–
8.72 µM,1.54 µM,O=C1/C(=C/c2ccc(O)cc2)COc2cc(O)ccc21,Activity (RAW264.7 [9]): Active; Activity (RAW264.7 [3]): Active; Activity (RAW264.7 [4]): Active; Activity (RAW264.7 [5]): inactive; Activity (RAW264.7 [7]): inactive
39.3 µM,2.05 µM,O=C1/C(=C/c2cccc(O)c2O)Cc2ccccc21,–
53 µM,49.2 µM,COc1ccc2c(c1)CC/C(=C\c1ccc(O)c(OC)c1)C2=O,–
–,23.9 µM,O=C1/C(=C/c2ccc(O)cc2)CCc2cc(O)ccc21,IC50 [1]: Not Active
107 µM,58.8 µM,COc1ccc2c(c1)CC/C(=C\c1ccncc1)C2=O,–
50.2 µM,39.1 µM,O=C1/C(=C/c2ccccc2O)CCc2cc(O)ccc21,–
401 µM,40.7 µM,O=C1/C(=C/c2ccccc2O)Cc2ccccc21,–
132 µM,78 µM,COc1ccc2c(c1)CC/C(=C\c1ccc(O)c(O)c1)C2=O,–
